In paper PMC5559315 (Biochimie, 2017):
“Also recorded” adds a separate entry of the source. Read-outs that look alike come from different tables or passages of the source.

Legend:
Cb H-NOX = settings: ref [11], cited from earlier work
Ms sGC NT2 = settings: read-out: KD(CO); Ms sGC NT2, lacking 48 residues from α-subunit N-terminus and the catalytic domains; ref [27]; cited from earlier work
Tt H-NOX = settings: ref [11], cited from earlier work; for Kd / koff / kon: NO: 6c NO-heme-His complex
Ns H-NOX = settings: cited from earlier work; for Kd / koff / kon: ref [10],[18]
[1] = molecular target: full length sGC from Manduca sexta (Ms sGC); settings: read-out: KD(CO), ref [27]; cited from earlier work
ferrous So H-NOX = assay: Stopped-flow binding kinetics of gaseous ligands to ferrous So H-NOX; set-up: species or system Shewanella oneidensis; settings: for kon: ferrous So H-NOX, room temperature, anaerobic, CO: 6c CO-heme-His complex
[2] = molecular target: β H-NOX/PAS subunit of Ms sGC; settings: read-out: KD(CO); β H-NOX/PAS subunit alone; ref [27]; cited from earlier work
Vc H-NOX [3] = settings: ref [9], cited from earlier work
[4] = molecular target: soluble guanylyl cyclase (sGC); settings: cited from earlier work; for Kd / koff / kon: ref [18]
Vc H-NOX [5] = assay: Gaseous ligand binding kinetics of Vc H-NOX; set-up: species or system Vibrio cholera; settings: reacted with 600 µM O2; data not shown
[6] = NO: 6c NO-heme-His complex, O2: high pressure cell
[7] = calculated as koff/kon, NO: 6c NO-heme-His complex
[8] = O2, estimated based on the sliding scale rule
[9] = Intermediate NO-heme--NO(−-His), estimated based on computer simulations

Molecule | Kd (Cb H-NOX; NO: 6c NO-heme-His complex) | koff (Cb H-NOX; NO: 6c NO-heme-His complex) | kon (Cb H-NOX; NO: 6c NO-heme-His complex) | Kd (Tt H-NOX) | koff (Tt H-NOX) | kon (Tt H-NOX) | Kd (Ns H-NOX; [6]) | koff (Ns H-NOX; NO: 6c NO-heme-His complex) | kon (Ns H-NOX; NO: 6c NO-heme-His complex) | Kd (ferrous So H-NOX; [7]) | kon (ferrous So H-NOX; NO: 6c NO-heme-His complex) | Kd (Vc H-NOX [3]; NO: 6c NO-heme-His complex) | koff (Vc H-NOX [3]; NO: 6c NO-heme-His complex) | kon (Vc H-NOX [3]; NO: 6c NO-heme-His complex) | Kd ([4]; NO: 6c NO-heme-His complex) | koff ([4]; NO: 6c NO-heme-His complex) | kon ([4]; NO: 6c NO-heme-His complex) | also measured
[C-]#[O+] [CO, carbon monoxide] | 670 nM | 1.0 s⁻¹ | 1.5e+06 M⁻¹ s⁻¹ | 160 nM | 0.5 s⁻¹ | 3.3e+06 M⁻¹ s⁻¹ | 1.4 µM | 3.6 s⁻¹ | 3e+06 M⁻¹ s⁻¹ | 0.85 µM | 820000 M⁻¹ s⁻¹ | 0.77 µM | 0.85 s⁻¹ | 1.1e+06 M⁻¹ s⁻¹ | 260 µM | 10.7 s⁻¹ | 40000 M⁻¹ s⁻¹ | Kd (Ms sGC NT2): 50 to 100 µM; Kd [1]: 50 to 100 µM; Kd [2]: 0.2 µM
O=O [O2] | 53000 nM |  |  | 44 nM | 1.9 s⁻¹ | 4.3e+07 M⁻¹ s⁻¹ | 13000 µM |  |  |  |  |  |  |  |  |  |  | autoxidation rate (Vc H-NOX [5]): ~ 4 × 10^−3 s^−1; autoxidation rate (Cb H-NOX; reacted with 600 µM O2): 0.02 s⁻¹; autoxidation of oxyferrous heme (Tt H-NOX): no autoxidation is observed; autoxidation rate (Ns H-NOX; ref [10]): 1.4e-05 s⁻¹; O2 binding (ferrous So H-NOX; O2-saturated buffer, final [O2] = 600 µM, no oxyferrous intermediate): does not bind O2; Kd (ferrous So H-NOX; [8]): ~4500 µM; Kd (Vc H-NOX [3]; [8]): ~1300 µM
nitric oxide [NO] | 0.08 nM | 0.012 s⁻¹ | 1.5e+08 M⁻¹ s⁻¹ | 0.023 nM | 0.0034 s⁻¹ | 1.5e+08 M⁻¹ s⁻¹ | 0.00017 µM | 0.05 s⁻¹ | 3e+08 M⁻¹ s⁻¹ | 0.00015 µM | 1.5e+09 M⁻¹ s⁻¹ | 0.00027 µM | 0.3 s⁻¹ | 1.1e+09 M⁻¹ s⁻¹ | 0.054 µM | 27 s⁻¹ | 1.4e+08 M⁻¹ s⁻¹ | koff (Cb H-NOX; 5c heme-NO complex): 0.0011 s⁻¹; kon (Cb H-NOX; [9]): 1.8 × 10^7 ^‡ M^−1s^−1; Kd (Cb H-NOX; read-out: KD(NO)(apparent), 5c heme-NO complex): 0.0073 nM; Kd (Ns H-NOX; 2nd 6c NO-heme-His complex): 0.8 µM; koff (Ns H-NOX; 2nd 6c NO-heme-His complex): 1.9 s⁻¹; kon (Ns H-NOX; 2nd 6c NO-heme-His complex): 2.4e+06 M⁻¹ s⁻¹; koff,5c(NO) (ferrous So H-NOX; 5c heme-NO complex, CO displacement method): 0.0013 s⁻¹; koff, dissociation rate of NO from the quaternary intermediate (ferrous So H-NOX; Intermediate NO-heme--NO(−-His), y-intercept of secondary plot): very small; also recorded: small; formation rate of the 5c heme-NO complex (D → E) (ferrous So H-NOX; not measured directly, significantly faster than kobs at 30 µM NO): > 600 s⁻¹; koff (Vc H-NOX [3]; 5c heme-NO complex): 10^−3 – 10^−2 s^−1; koff (Vc H-NOX [3]; [9]): 4.5 × 10^3 ^‡ s^−1; kon (Vc H-NOX [3]; [9]): 2.5 × 10^7 ^‡ M^−1s^−1; koff ([4]; 5c heme-NO complex): 10^−4 – 10^−3 s^−1; koff ([4]; Intermediate NO-heme--NO(−-His)): 26 s⁻¹; conversion rate from 6c NO complex to 5c NO-heme complex ([4]; ref [23]): 8.5 s⁻¹
